Data on one compound can be found in US11786511B2, “Methods for increasing circulating mesenchymal stem cells” (University of Southern California, priority 2017, dated 2023).

“Also recorded” adds a separate entry of the source.

Common to all, as to assay type: in vivo, C57BL/10ScSn-Dmd^mdx/J)
One assay relates to bone marrow MSCs. The assay is described as follows: Bone marrow CFU-F colony count after 6 weeks oral treatment in the mdx mouse model of DMD. Conditions: mdx mice, vs vehicle treated mdx. How it is done:
(§1) In the mdx mouse model of DMD, 5 week-old wild-type (C57BL/10SnJ) and mdx (C57BL/10ScSn-Dmd^mdx/J) mice were treated for 6 weeks and necropsied. These mice were broken into 4 orally dosed groups: a wild-type group (n=5) dosed twice daily with vehicle, an mdx group (n=8) dosed twice daily with vehicle, an mdx group (n=8) dosed once daily with 8 mg/kg of Compound 7, and an mdx group (n=8) dosed twice daily with 8 mg/kg of Compound 7. The vehicle was a 1% β-cyclodextrin in ˜pH 3 citrate buffer and the treatment 1% β-cyclodextrin in ˜pH 3 citrate buffer with Compound 7. At necropsy, the femur bone marrow was isolated and peripheral blood was harvested. The bone marrow was cultured in Mesencult™ MSC Basal Medium (mouse) supplemented with Mesencult™ MSC Stimulatory Supplement (Stemcell Technologies). CFU-F colonies of ≥50 cells were counted after 8 days in culture.
At necropsy, the femurs were also collected in a 1.5 mL microcentrifuge tube containing ˜800 μL of sterile Dulbecco's phosphate-buffered saline (DPBS) with 2% fetal bovine serum (FBS) and 2× Penicillin (Pen) and 2× Streptomycin (Strep) (DPBS/2% FBS/2× Pen/Strep) and stored on ice. […] The cell solutions were counted with a Z1 Coulter Counter (Beckman Coulter) and resuspended at 5*10^6 cells/mL. […] On day 8, the colonies of ≥50 were counted by light microscopy.

The subject of assay [1] is bone marrow MSCs (CD45 negative, Sca-1, CD29 & CD105 positive). The assay is described as follows: Flow cytometry of bone marrow for CD45 negative cells triply positive for Sca-1, CD29 & CD105, mdx mouse model. Conditions: mdx mice, 8 mg/kg oral once or twice daily, 6 weeks, vs vehicle treated mdx. The method, then: as §1, with “The bone marrow was cultured in Mesencult™ MSC Basal Medium (mouse) supplemented with Mesencult™ MSC Stimulatory Supplement (Stemcell Technologies).” left out, “culture. […]” for “culture.”
(§2) During the necropsy, the blood was collected by cardiac puncture with a 1 mL syringe fitted with a 22G needle, transferred into 2 ml K3E K3EDTA VACUETTE® tubes, and stored on ice. […] The cell solutions were counted with a Z1 Coulter Counter (Beckman Coulter) and resuspended at 5*10^6 cells/mL. […] The supernatant was then removed, re-suspend in 500 μL 10% neutral buffered formalin, covered with aluminum foil, and stored at 4° C. until analyzed. Samples were then read on a LSR II flow cytometer (BD Biosciences, San Jose, Calif.). Data was analyzed using FlowJo™ V 10.0.7r2.
(In general: A flow cytometer gives signals particle by particle.)

The test system of assay [2] is circulating MSCs (CD45 negative, Sca-1, CD29 & CD105 positive). The assay is described as follows: Flow cytometry of peripheral blood for CD45 negative cells triply positive for Sca-1, CD29 & CD105, mdx mouse model. Conditions: mdx mice, 8 mg/kg oral twice daily, 6 weeks, vs vehicle treated mdx and wild-type. How it is done: as §1, with “The bone marrow was cultured in Mesencult™ MSC Basal Medium (mouse) supplemented with Mesencult™ MSC Stimulatory Supplement (Stemcell Technologies).” left out, “culture. […]” for “culture.”
as §2

For the compound `CCCCOC(=O)NS(=O)(=O)c1ccc(OC(F)(F)F)cc1-c1ccc(Cn2ccnc2)cn1` [Compound 7], the “Bone marrow MSC, CFU-F counts (colonies of ≥50 cells after 8 days in culture)” value in the assay with bone marrow MSCs (8 mg/kg oral once daily) is recorded as “significantly increased; also recorded: significant increase”; in the assay on bone marrow MSCs (8 mg/kg oral twice daily) it was “restoring levels comparable to the non-dystrophic controls; also recorded: significant increase”. Besides, in assay [1], the “Percentage of CD45 negative cells triply positive for Sca-1, CD29 & CD105 in bone marrow” value is recorded as “restored the percentage of these triply positive cells to levels comparable to non-dystrophic controls; also recorded: significantly increased”. Moreover, the “Percentage of CD45 negative cells triply positive for Sca-1, CD29 & CD105 in peripheral blood (circulating MSCs)” value in assay [2] is recorded as “significantly higher; also recorded: significant increase”.
